Experimental findings from patent publication US11613545B2, “Macrocyclic compound serving as Wee1 inhibitor and applications thereof” (WUXI BIOCITY BIOPHARMACEUTICS CO., LTD., priority 2017, dated 2023) are described below.

The target of one series is T1, Wee1 (Homo sapiens, UniProt P30291).
T1 construct: purchased Eurofins
Kind of series: In vitro enzymatic inhibitory activity, Wee1 kinase (Eurofins, [γ-33P]-ATP filter assay). Format: biochemical. The conditions noted are these: 10 μM [γ-33P]-ATP, 40 min at room temperature. The protocol:
The experimental tests were conducted at Eurofins, and the results were provided by the company.
After adding the mixed solution of Mg^2+ and ATP, the reaction started and the reaction solution was incubated at room temperature for 40 min. 3% phosphate buffer was added to stop the reaction. 10 μL of the reaction solution was filtered on a continuous filter P30, washed three times with 75 mM phosphate buffer, once with methanol, and 5 minutes each time. After drying, the value was read by scintillation counting method.

The test system of a further series is P-gp (MDR1). Kind of series: In vitro permeability test in MDR1-MDCK II cells (bidirectional transport). Format: in vitro ADME, canine. The conditions noted are these: dog. From the text:
(§1) The study used MDR1-MDCK II cells authorized by Piet Borst laboratory of the Netherlands Cancer Institute, which are a kind of Madin-Darby canine kidney cells transfected with human multi-drug resistance gene (MDR1). The cells can stably express the efflux transporter P glycoprotein (P-gp), so they are suitable for screening P-gp substrates or inhibitors, and predict that the compounds have high efflux barrier permeability such as duodenum, blood-brain barrier, hepatocyte nucleus and renal unit. We used the 5th to 35th generation MDR1-MDCK II cells for permeability study.
(§2) MDR1-MDCK II cells were cultured with α-MEM medium (α-Minimum Essential Media) under the conditions of 37±1° C., 5% CO2 and saturated relative humidity. After that, the cells were inoculated in a BD Transwell-96-well plate with an inoculation density of 2.3×10^5 cells/cm^2, and then the cells were placed in a carbon dioxide incubator for 4-7 days and used for transport experiments. The preparation method of α-MEM medium was as follows: the liquid nutrient base was prepared by dissolving powder (α-MEM powder from Gibco, Cat #: 11900) in pure water, and L-glutamine and NaHCO3 were added. 10% FBS (fetal bovine serum), 1% PS (dual antibiotic) and 1% NEAA were added to make it a complete medium when using.
(§3) Fenoterol and propranolol were tested at a concentration of 2 μM, administered unidirectionally (A-B direction), and duplicated in two wells.
(§4) The solution to be used was pre-incubated in a 37±1° C. water bath for 30 minutes. The dosing solution and the receiving solution were added to the corresponding well positions of the cell plate (75 and 250 μL for each top and bottom well, respectively) to start the bidirectional transport experiment. After loading, the cell plates were placed in an incubator at 37±1° C., 5% CO2 and saturated relative humidity for 150 minutes.
(§5) After vortexing, all samples were centrifuged at 3,220 g for 10 minutes. An appropriate volume of supernatant was transferred to the sample analysis plate, and analyzed by LC/MS/MS. If samples were not analyzed immediately after sealing, they were store at 2-8° C.
(§6) After the transport experiment was completed, the integrity of MDR1-MDCK II cells was tested using Lucifer Yellow Rejection Assay. After incubating the fluorescent yellow solution for 30 minutes, the fluorescent yellow samples were collected, and the relative fluorescence unit (RFU) of the fluorescent yellow in the sample was detected at 425/528 nm (excitation/emission) by the 2e plate reader.
(§7) Semi-quantitative analysis was used for the test products AZD1775 (or the compound of the present invention), the control products fenoterol, propranolol and digoxin. The ratio of the peak area of the analyte to the internal standard was used as the concentration of the reference substance.

Another series deals with P-gp (human MDR1). The description is as above. Format: in vitro ADME, canine. Particulars: dog; for Papp A→B at 150 min, 2 μM: A to B, read-out: Penetration rate A to B; for Papp B→A at 150 min, 2 μM: B to A, read-out: Penetration rate B to A.
Excerpt: as §1, §2, §3, §4, §5, §6, §7

Series [1] is described as follows: Pharmacokinetic evaluation in plasma after single intravenous and single oral administration. Format: in vivo. The conditions noted are these: mouse, female Balb/c Nude mice. The protocol: Twelve mice (provided by Lingchang Biotech) were randomly divided into two groups, 6 females in each group, and samples were collected by cross blood collection. […] In the intravenous group, plasma samples were collected at 9 time points of 5 minutes, 15 minutes, 30 minutes, 1 hour, 2 hours, 4 hours, 6 hours, 8 hours, and 24 hours after administration; in the oral group, plasma samples were collected at 8 time points of 15 minutes, 30 minutes, 1 hour, 2 hours, 4 hours, 6 hours, 8 hours, and 24 hours after administration.

The test system of series [2] is human colon cancer LoVo cell subcutaneous xenograft tumor. Kind of series: In vivo pharmacodynamic study, LoVo subcutaneous xenograft tumor model. Set-up: species or system BALB/c nude mice. Particulars: 40 mg/kg twice daily, after administration for 16 days. On the procedure: (1) In vivo pharmacodynamic study of the compounds on human colon cancer LoVo cell subcutaneous xenograft tumor BALB/c nude mouse model
Experimental method: The selected experimental animal (provided by Shanghai Xipu'er-bikai Experimental Animal Co., Ltd.) were BALB/c nude mice, 6-8 weeks old, weighing 18-22 grams.
Human colon cancer LoVo cells were cultured in monolayer in vitro. The culture conditions were Ham's F-12 medium containing 10% fetal bovine serum, 100 U/mL penicillin, 100 μg/mL streptomycin and 2 mM glutamine, 37° C., 5% CO2 culture. Conventional digestion treatment with trypsin-EDTA was performed twice a week for passaging. When the cell saturation was 80%-90%, the cells were collected, counted, and inoculated. 0.1 mL (10×10^6) LoVo cells were subcutaneously inoculated into the right back of each nude mouse. When the average tumor volume reached 213 mm^3, they were divided into groups and the drug administration was started. Dosage: 40 mg/kg twice daily. The experimental index is to investigate whether the tumor growth is inhibited, delayed or cured. The diameter of the tumor was measured with vernier calipers twice a week. The calculation formula of tumor volume is: V=0.5a×b^2, a and b represent the long and short diameters of the tumor, respectively.
The antitumor efficacy of the compound was evaluated by TGI (%) or relative tumor proliferation rate T/C (%). […]

Series [3] relates to human pancreatic cancer BxPC-3 subcutaneously transplanted tumor. Kind of series: In vivo pharmacodynamic study, BxPC-3 subcutaneously transplanted tumor model. On the set-up: species or system BALB/c nude mice. Particulars: BxPC-3 xenograft, 25 mg/kg once a day, after administration for 27 days. The protocol: (2) In vivo pharmacodynamic study of the compound on human pancreatic cancer BxPC-3 BALB/c nude mouse subcutaneously transplanted tumor model
Experimental method: The selected experimental animal was BALB/c nude nude mice, 6-8 weeks old, weighing 18-22 grams.
The 10th generation of BxPC-3 cells were cultured in monolayer in vitro. The culture conditions were RPMI 1640 medium (manufacturer: gibco, article number: 22400-089) containing 10% fetal bovine serum, 100 U/mL penicillin and 100 μg/mL streptomycin, 37° C. 5% CO2 culture, passage was performed for 4 times. The passaging method was conventional digestion treatment with trypsin-EDTA twice a week. When the cell saturation reached 80%-90%, the cells were digested with trypsin-EDTA, counted, and resuspended in PBS at a density of 5×10^7 cells/mL. Each animal was inoculated with 0.1 mL (5×10^6) BxPC-3 cells in the right back. When the average tumor volume reached 153 mm^3, they were randomly divided into groups according to the tumor volume and the drug administration was started. Dosage: 25 mg/kg, once a day.
The experimental index is to investigate whether the tumor growth is inhibited, delayed or cured. The diameter of the tumor was measured with vernier calipers twice a week. The antitumor efficacy of the compound was evaluated by TGI (%) or relative tumor proliferation rate T/C (%). TGI (%) reflects the tumor growth inhibition rate. […]

The test system of series [4] is CT26 mouse colon cancer transplanted tumor. Kind of series: In vivo anti-tumor efficacy, CT26 colon cancer transplanted tumor model. Set-up: species or system BALB/c nude mice. The conditions noted are these: 30 mg/kg twice daily, after administration for 18 days. The protocol:
(3) In vivo anti-tumor efficacy of the compounds on CT26 mouse colon cancer animal transplanted tumor model
Experimental method: The selected experimental animal was BALB/c nude mice, 7 weeks old, weighing 16-20 grams, female.
Cells: Mouse colon cancer CT26 cells (the Cell Bank of Typical Culture Preservation Committee of the Chinese Academy of Sciences) were cultured in monolayer in vitro. The culture conditions were RPMI-1640 medium containing 10% fetal bovine serum and 37° C. 5% CO2 incubator. Conventional digestion treatment with trypsin-EDTA was performed twice a week for passaging. When the cells were in the exponential growth phase and the saturation was 80%-90%, the cells were collected, counted, and inoculated. 0.1 mL DPBS (containing 3×10^5 CT26 cells) was subcutaneously inoculated into the right back of each mouse. When the average tumor volume reached 50-70 mm^3, randomized administration was performed according to tumor volume. Dosage: 30 mg/kg twice daily.
The experimental index is to investigate whether the tumor growth is inhibited, delayed or cured. The diameter of the tumor was measured with vernier calipers twice a week. The antitumor efficacy of the compound was evaluated by TGI (%) or relative tumor proliferation rate T/C (%). TGI (%) reflects the tumor growth inhibition rate.
After the final administration for 18 days, the experimental results are as follows: […]

T1 sequence (P30291 whole entry): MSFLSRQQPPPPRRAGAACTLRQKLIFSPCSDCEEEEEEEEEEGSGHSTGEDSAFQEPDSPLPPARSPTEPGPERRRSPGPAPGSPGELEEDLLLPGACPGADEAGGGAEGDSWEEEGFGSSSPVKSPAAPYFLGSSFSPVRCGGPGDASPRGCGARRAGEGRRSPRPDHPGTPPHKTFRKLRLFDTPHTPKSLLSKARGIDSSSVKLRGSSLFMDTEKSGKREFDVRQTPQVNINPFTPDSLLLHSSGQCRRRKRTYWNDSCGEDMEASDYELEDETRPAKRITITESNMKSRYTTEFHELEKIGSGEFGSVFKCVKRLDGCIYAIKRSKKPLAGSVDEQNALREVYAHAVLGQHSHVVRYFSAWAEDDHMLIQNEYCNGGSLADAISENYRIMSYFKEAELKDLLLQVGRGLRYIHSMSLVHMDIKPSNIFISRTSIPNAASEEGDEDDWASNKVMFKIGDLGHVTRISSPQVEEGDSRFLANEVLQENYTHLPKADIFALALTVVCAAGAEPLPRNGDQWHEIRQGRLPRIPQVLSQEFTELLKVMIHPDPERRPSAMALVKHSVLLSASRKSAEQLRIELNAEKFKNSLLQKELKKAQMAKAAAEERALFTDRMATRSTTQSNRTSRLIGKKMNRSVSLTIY

At Wee1, `CN1CCN(c2ccc(Nc3ncc4c(=O)n5n(c4n3)-c3cccc(n3)C(C)(O)CC/C=C\C5)cc2)CC1` (single isomer, unassigned) [Compound 1] yielded an IC50 of 29 nM. For the same compound, the efflux ratio at 150 min, 2 μM with P-gp (MDR1) is 3.82. Moreover, the Papp A→B at 150 min, 2 μM in the series with P-gp (human MDR1) came out at 4.55 ×10⁻⁶ cm/s. Moreover, the Papp B→A at 150 min, 2 μM in the series on P-gp (human MDR1) is 17.4 ×10⁻⁶ cm/s. Moreover, the clearance in series [1] (1 mg/kg intravenous, 10 mg/kg oral study, read-out: Clearance rate) stood at 33.5 mL/min/kg. Moreover, in series [1] (1 mg/kg intravenous, 10 mg/kg oral study, read-out: Concentration integral AUC), the AUC came out at 6.04 µM·h. In addition, the half-life in series [1] (1 mg/kg intravenous, 10 mg/kg oral study, read-out: Half-life T1/2 (converted)) is 1.69 h. In addition, in series [1] (po, 10 mg/kg by gavage vs 1 mg/kg intravenous, read-out: Bioavailability F), the bioavailability was found to be 62.4%. Besides, the results for the “TGI (%)” value in series [2], in series [3] and in series [4] were 84.74%, 73.3% and 93.38%, respectively.
For `C=CCn1c(=O)c2cnc(Nc3ccc(N4CCN(C)CC4)cc3)nc2n1-c1cccc(C(C)(C)O)n1` [AZD1775, reference compound], in the series on P-gp (human MDR1), the Papp A→B at 150 min, 2 μM worked out at 2.83 ×10⁻⁶ cm/s. Besides, the Papp B→A at 150 min, 2 μM with P-gp (human MDR1) came out at 29.3 ×10⁻⁶ cm/s. In addition, the “TGI (%)” value is given as 26.73% in series [2], 24.3% in series [3] and 66.43% in series [4].

For orientation: IC50 means the concentration that inhibits the measured activity by half. What is called efflux ratio is a quotient of directional permeabilities that is used to spot active efflux. For orientation: bioavailability means dose-corrected exposure relative to a reference, in per cent.
